From patent publication US5011828A, “Immunostimulating guanine derivatives, compositions and methods” (priority 1988, dated 1991) come the findings set out here.

One data set deals with CBA/N mouse spleen cells. Briefly: In vitro reconstitution of primary humoral immune response to SRBC, immunodeficient CBA/N spleen cells (FIG. 2). The format is cell-based. From the text:
(§1) FIG. 2 is a graph that illustrates the in vitro reconstitution of the primary humoral immune response to a specific antigen, SRBC, in cultured immunodeficient CBA/N mouse spleen cells (dotted line) obtained by contacting those cells with an aqueous composition containing 7a8oGuo, in the further presence of SRBC. A similar study using spleen cells from immunocompetent CBA/CaJ mice (solid line) is also shown in the graph for comparison. The points on each line represent the PFC value obtained in the presence of the indicated amount of 7a8oGuo plus SRBC. The ordinate and abscissa are as in FIG. 1. Further details of this study are provided hereinafter.
(§2) Cultures of spleen cells from male and female homzygous CBA/N and male mice heterozygous for the CBA/N gene, called the xid gene, (male mice bear the X chromosome) was prepared as described in the Materials and Methods Section. 0.1 Milliters of a 0.1 percent (v/v) SRBC suspension alone or the SRBC suspension plus incremental amounts of 7a8oGuo were added to the cultures, using 5×10^6 cells/ml. Direct anti-SRBC […] per culture were assessed after 4 days of culture.

The test system of data set [1] is CBA/CaJ thymocytes (irradiated BDF1 splenocyte stimulators). Briefly: T cell proliferation in mixed leukocyte cultures, CBA/CaJ thymocytes. The note with it: Study 4, responder +, stimulator +. Type of data set: cell-based, mouse. An excerpt:
A third and fourth study utilized thymocytes from CBA/CaJ mice as the stimulated (responder) cells, and irradiated BDFl mouse spleen cells as the stimulator cells. Two guanosine derivatives of the present invention, 7a8MGuo and 7a8oGuo, were used for these studies, with 8MGuo serving as positive control for one of the studies.
However, in the presence of interleukin-2 (IL-2), those cells develop responsiveness to allogeneic stimulation. The present studies utilizing thymocytes were therefore carried out in the presence of a co-stimulating amount of IL-2.
^1 Plus signs (+) are utilized to indicate the presence of the
^3 Allogeneic cells used to costimulate proliferation, after exposure
T Helper Cell Activation. 1.5×10^5 viable spleen cells from SJL mice or CBA/CaJ mouse thymocytes were cultured with or without an equal number of irradiated (2500 rads) spleen cells from CBA/CaJ or BDFl mice respectively, in 0.2 ml of culture medium in the presence of incremental concentrations of the exemplary 7,8-disubstituted guanine derivatives. The lymphocyte culture medium utilized was that described before, and was further supplemented with 2-mercaptoethanol to a final concentration of 50 uM. Thymocyte cultures also contained 10 percent (v/v) of a concanavalin A-conditioned rat spleen cell medium sold under the name Rat T Cell Monoclone by Collaborative Research. Following 90 hours of culture, one microCurie [^3 H]TdR per culture was admixed, and the resulting culture was maintained for a further six hour time period.
The cultures were harvested with a Brandel cell harvester (M24V, Biological Research and Development Laboratories, Rockville, Md.) onto glass fiber filter disks. Filter disks were transferred to plastic scintillation vials, covered with liquid scintillation cocktail, and counted in a Beckman LS5700 liquid scintillation counter.

A short description of another data set: physchem. The format is physicochemical, human. From the text: Solubilities in urine could be expected to be lower than those for water due to the relatively higher salt content in urine than is found in water.
Each sample was filtered through a 5 micron pore-sized filter, diluted as necessary with the HPLC mobile phase, and then quantified by HPLC.

Data set [2] relates to murine lymphocytes (sheep red blood cells as antigen). Briefly: Antigen-specific adjuvanticity: direct anti-SRBC plaque forming cells, murine system. Type of data set: cell-based, mouse. From the text:
^1 Adjuvanticities against sheep red blood cells [SRBC] measured in
direct plaqueforming cells per culture of lymphocytes from the mouse
strains shown. Details of the procedure are provided in the Materials and
Methods Section. Standard errors from the enumerated mean values are show
A large number of comparisons of adjuvanticity using human and murine lymphocytes as the source of leukocytes have been carried out using compounds of the present invention, as well as with new compounds excluded from the present invention. […] Interstudy comparisons are however useful for showing trends and large differences. Tables 5, 6 and 7, hereinafter, provide exemplary data from such studies in which only the activity at the peak concentration is shown for each compound and the results for the controls are omitted.
Lymphocyte cultures. The serum-containing culture medium water prepared to contain the following per 100 milliliters: 91.9 milliliters RPMI 1640 (Flow Laboratories, Inc., Rockville, Md.), 0.1 milliliters of 100×glutamine, 1.0 milliliter of 100×sodium pyruvate, 1 0 milliliter of 50×nonessential amino acids, 1.0 milliliter of water containing 10^4 units of penicillin G and 10^4 micrograms of streptomycin, and 5.0 milliliters of a supportive lot of fetal calf serum (FCS). These ingredients were admixed to apparent homogeneity. Spleen cell suspensions and populations enriched for splenic B cells were prepared as described in Goodman et al., J. Immunol., 121:1905 (1978).
For evaluation of the primary humoral immune response to sheep erythrocytes (SRBC), 5×10^6 to 10^7 murine spleen cells were cultured in 1.0 milliliter of 5% FCS-containing medium for 4 or 5 days in the presence and absence of immunogen. Cells were incubated in culture trays (Costar, Cambridge, Mass.) at 37° C. in a humidified atmosphere of 10% CO2 in air using tissue culture boxes (CBS Scientific, Del Mar, Calif.) that were rocked at a frequency of 7 cycles per minute. Pooled SRBC are available from the Colorado Serum Co., Denver Colo.
(§3) Assay of plaque forming cells (PFC). PFC secreting antibodies against SRBC were evaluated after 4 or 5 days of culture using a modification of the hemolytic plaque assay of Jerne and Nordin, Science, 140:405 (1963). The cells were brought up in complete medium before plaquing; they were plaqued in standard low Mr agarose (Bio-Rad Laboratories, Richmond Calif.), and were incubated in SRBC-absorbed guinea pig complement for one hour after a 1.5 hour incubation without complement.

Data set [3] relates to CBA/CaJ mouse spleen cells. In words: Primary humoral response to SRBC, immunocompetent CBA/CaJ spleen cells (comparison in FIG. 2). The format is cell-based.
Text: as §1, §2
The results of this study comparing cells from CBA/N mice with a preparation of spleen cells from CBA/CaJ mice, are shown in FIG. 2.

In another data set the test system is murine spleen cells. Briefly: Mitogenicity: [3H]TdR uptake, murine system. The format is cell-based, mouse. Conditions: Table 4.
Data set [4] deals with human peripheral blood lymphocytes (sheep red blood cells as antigen). In words: Antigen-specific adjuvanticity: direct anti-SRBC plaque forming cells, human system. The format is cell-based. As for the experimental part: ^1 Studies were carried in a manner similar to those of Table 1,
except that a human lymphocyte preparation was used.
The results shown in Table 7, below, were obtained similarly to those discussed above, but using human lymphocytes. Some of those studies utilized lymphocytes from more than one individual, and are therefore reported with multiple entries.
Human peripheral blood lymphocytes (PBL) were prepared from normal heparinized venous blood by Ficoll-diatrizoate density gradient centrifugation. PBL were depleted of suppressor T cells bearing the histamine type 2 receptor by adhering them to the surfaces of histamine-rabbit serum albumin-coated plastic petri dishes (Cell-ect No. 2 kit; Seragen, Boston, Mass.) and by recovering the nonadherent cells by panning as described by Wysocki and Sato, Proc. Natl. Acad. Sci. USA, 75:2844 (1978) and modified by Cavagnaro and Osband, Biotechniques, January/February:30 (1983).
The tissue culture medium employed in these studies for human lymphocytes was prepared as follows: One hundred milliliters (ml) contained 87.9 ml RPMI 1640 (Flow Laboratories, Rockville, Md.), 0.1 ml 100×glutamine,1.0 ml of 1.0 M HEPES buffer (Microbilogical Associates, Betheseda, Md.), 1.0 ml of water containing 10^4 U of penicillin G and 10^4 micrograms of streptomycin, and 10 ml of fresh autologous heat-inactivatedplasma. For evaluation of the primary humoral immune response to SRBC, lymphoid cells prepared as above were cultured at a density of 2×10^6 /ml in a volume of 1.0 ml containing 5×10^6 SRBC as antigen (Colorado Serum Co., Denver, Colo.) together with IL-2 (a partially purified preparation of human IL-2 that was free of interferon-gamma activity was obtained from Electro-Nucleonics, Inc., Silver Spring, Md.) and the guanine nucleoside derivative.
as §3

As usually defined, the solubility is the dissolved amount per volume that the medium holds. The low end stands for a poorly soluble substance, the high end for a readily soluble substance.

Molecules are shown by their SMILES. Values after ≈ are worked out from the molar mass of the structure shown.

Text for murine spleen cells: ^1 Mitogenicity measured by the uptake of [^3 H]TdR
(tritiumlabeled thymidine deoxyribonucleoside) as determined by measuring
counts per minute (cpm) per cell culture using the conditions discussed i

In the case of `C=CCn1c(=O)n([C@@H]2O[C@H](CO)[C@@H](O)[C@H]2O)c2nc(N)[nH]c(=O)c21` [7a8oGuo, 7-(2-Propenyl)-8-oxoguanosine], the “concentration giving the similar PFC/culture values” in the data set with CBA/N mouse spleen cells was 30 µM; in data set [3] it was 10^-5 M. Besides, the “[3H] TdR Uptake” value is given as 10,000 ± 800 counts per minute in data set [1] (10^-4 M); 8000 ± 300 counts per minute in data set [1] (10^-5 M); 8300 ± 300 counts per minute in data set [1] (10^-6 M); 59,150 ± 420 cpm/culture in the data set on murine spleen cells (3 × 10^-4 M); 51,340 ± 1050 cpm/culture in the data set on murine spleen cells (10^-3 M); 39,830 ± 780 cpm/culture in the data set on murine spleen cells (10^-4 M). Also, in the data set “physchem”, the “solubility in human urine, in words” value is given as “about a three-fold greater solubility than did 7m8oGuo”. This compound registered a solubility at 18 h in the data set “physchem” (human, urine) of 16.3 mg/mL (≈ 48 mM). Moreover, the “Peak Direct anti-SRBC PFC/Culture” value in data set [2] (Table 5, murine system, at peak concentration) is given as 1827 PFC/Culture; in data set [4] (Table 7, first group, person a), 3038 ± 288 PFC/Culture; in data set [4] (Table 7, first group, person b) it was 9250 ± 1010 PFC/Culture; in data set [4] (Table 7, first group, person c), 4831 ± 270 PFC/Culture; in data set [4] (Table 7, second group, person a) it was 477 PFC/Culture; in data set [4] (Table 7, second group, person b) it was 10,313 PFC/Culture. The “Peak Direct anti-SRBC PFC/Culture” value in data set [4] (Table 7, second group, person c) is given as 4413 PFC/Culture. Further, the “Direct Anti-SRBC PFC/Culture” value in data set [2] (Table 8, 1 × 10^-5 M) worked out at 1387 PFC/Culture. The “Average 1 Log Plaque Values” in data set [2] (Table 9, murine, * = single study) was 98,237 ± 42,041 per micromole; in data set [4] (Table 9, human, * = single study), 22,640 ± 4187 per micromole. The “peak adjuvanticity values greater as compared to 7m8oGuo” value in data set [4] (human system (Table 3)) is recorded as “about 100%”.
